# Measurements: patent US10597388B2, “Pyridazinone herbicides” (FMC CORPORATION, priority 2014, dated 2020)
# Columns and labels:
# Type in all cases: in vivo
# [1] = test system: barnyardgrass (Echinochloa crus-galli); assay: Test C greenhouse herbicide test, pre- and postemergence
# In short: (§1)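 Percent-control ratings (0 none, 100 complete) came from visual comparison with controls held alongside in the greenhouse for 13–15 d. Treatments covered soil application at sowing and foliar application to young plants 2–18 cm tall.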
# [2] = test system: wheat (winter wheat, Triticum aestivum); assay: as above
# In short: as §1
# [3] = test system: waterhemp (common waterhemp, Amaranthus rudis); assay: as above
# In short: as §1
# [4] = test system: ragweed (common ragweed, Ambrosia elatior); assay: as above
# In short: as §1
# [5] = test system: blackgrass (Alopecurus myosuroides); assay: as above
# In short: as §1
# [6] = test system: johnsongrass (Sorghum halepense); assay: as above
# In short: as §1
# [7] = test system: pigweed (Amaranthus retroflexus); assay: as above
# In short: as §1
# [8] = test system: velvetleaf (Abutilon theophrasti); assay: as above
# In short: as §1
# corn (Zea mays) = assay: as above
# In short: as §1
# [9] = test system: oilseed rape (Brassica napus); assay: as above
# In short: as §1
# [10] = test system: galium (catchweed bedstraw, Galium aparine); assay: as above
# In short: as §1
# [11] = test system: foxtail, giant (giant foxtail, Setaria faberii); assay: as above
# In short: as §1
# [12] = test system: crabgrass, large (large crabgrass, Digitaria sanguinalis); assay: as above
# In short: as §1
# soybean (Glycine max) = assay: as above
# In short: as §1
# [13] = test system: morningglory (Ipomoea coccinea); assay: as above
# In short: as §1
# [14] = test system: oat, wild (wild oat, Avena fatua); assay: Test C greenhouse herbicide test, postemergence
# In short: (§2)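 Seedlings are raised in pots of peat moss–vermiculite medium with starter nutrients, then receive postemergence test chemical at the 1- to 4-leaf stage. They are kept in the greenhouse 13 to 15 d and scored visually versus controls, 0 meaning no effect and 100 complete control.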
# kochia (Kochia scoparia) = assay: Test C greenhouse herbicide test, postemergence
# In short: as §2
# [15] = Postemergence, 31 g ai/ha, scale 0 to 100 (0 no effect, 100 complete control)
# [16] = Postemergence, 62 g ai/ha, 0 to 100 scale (0 no effect, 100 complete control)
# [17] = Postemergence, 250 g ai/ha, scale 0 to 100, 0 no effect, 100 complete control, 13 to 15 d
# [18] = Preemergence, 31 g ai/ha, scale 0 to 100, 0 is no effect, 100 is complete control
# [19] = Preemergence, 62 g ai/ha, scale 0 to 100, 0 is no effect, 100 is complete control
# [20] = Preemergence, 125 g ai/ha, scale 0 to 100, 0 is no effect, 100 is complete control
# [21] = Preemergence, 250 g ai/ha, scale 0 to 100 (0 no effect, 100 complete control)
# [22] = postemergence, 125 g ai/ha, scale 0 to 100, 0 no effect, 100 complete control
smiles,measurement,setting,value
Cc1cc(C)c2ccccc2c1-c1c(OS(C)(=O)=O)c(C)nn(C)c1=O [Compound 154],"Plant response rating, Barnyardgrass",[1]; [15],70
same,Barnyardgrass plant response rating,[1]; [16],85
same,"Plant response rating, Barnyardgrass","[1]; Postemergence, 125 g ai/ha, scale 0 to 100, 0 is no effect, 100 is complete control",90
same,"Plant response rating, Barnyardgrass",[1]; [17],95
same,"Plant response rating, Barnyardgrass",[1]; [18],65
same,"Plant response rating, Barnyardgrass",[1]; [19],80
same,"Plant response rating, Barnyardgrass",[1]; [20],90
same,Barnyardgrass plant response rating,[1]; [21],95
same,"Plant response rating, Wheat",[2]; [15],0
same,Wheat plant response rating,[2]; [16],5
same,"Plant response rating, Wheat",[2]; [17],5
same,"Plant response rating, Wheat",[2]; [18],0
same,"Plant response rating, Wheat",[2]; [19],0
same,"Plant response rating, Wheat",[2]; [20],0
same,Wheat plant response rating,[2]; [21],30
same,Wheat plant response rating,[2]; [22],10
same,"Plant response rating, Waterhemp",[3]; [15],75
same,Waterhemp plant response rating,[3]; [16],80
same,"Plant response rating, Waterhemp",[3]; [17],70
same,"Plant response rating, Waterhemp",[3]; [18],30
same,"Plant response rating, Waterhemp",[3]; [19],85
same,"Plant response rating, Waterhemp",[3]; [20],95
same,Waterhemp plant response rating,[3]; [21],100
same,Waterhemp plant response rating,[3]; [22],85
same,"Plant response rating, Ragweed",[4]; [15],70
same,Ragweed plant response rating,[4]; [16],75
same,"Plant response rating, Ragweed",[4]; [17],90
same,"Plant response rating, Ragweed",[4]; [18],80
same,"Plant response rating, Ragweed",[4]; [19],95
same,"Plant response rating, Ragweed",[4]; [20],90
same,Ragweed plant response rating,[4]; [21],95
same,Ragweed plant response rating,[4]; [22],85
same,"Plant response rating, Blackgrass",[5]; [15],60
same,Blackgrass plant response rating,[5]; [16],65
same,"Plant response rating, Blackgrass",[5]; [17],85
same,"Plant response rating, Blackgrass",[5]; [18],5
same,"Plant response rating, Blackgrass",[5]; [19],50
same,"Plant response rating, Blackgrass",[5]; [20],85
same,Blackgrass plant response rating,[5]; [21],90
same,Blackgrass plant response rating,[5]; [22],60
same,"Plant response rating, Johnsongrass",[6]; [15],5
same,Johnsongrass plant response rating,[6]; [16],5
same,"Plant response rating, Johnsongrass",[6]; [17],20
same,"Plant response rating, Johnsongrass",[6]; [18],10
same,"Plant response rating, Johnsongrass",[6]; [19],45
same,"Plant response rating, Johnsongrass",[6]; [20],50
same,Johnsongrass plant response rating,[6]; [21],75
same,Johnsongrass plant response rating,[6]; [22],20
same,"Plant response rating, Pigweed",[7]; [15],65
same,Pigweed plant response rating,[7]; [16],85
same,"Plant response rating, Pigweed",[7]; [17],85
same,"Plant response rating, Pigweed",[7]; [18],55
same,"Plant response rating, Pigweed",[7]; [19],95
same,"Plant response rating, Pigweed",[7]; [20],100
same,Pigweed plant response rating,[7]; [21],100
same,Pigweed plant response rating,[7]; [22],90
same,"Plant response rating, Velvetleaf",[8]; [15],70
same,Velvetleaf plant response rating,[8]; [16],85
same,"Plant response rating, Velvetleaf",[8]; [17],90
same,"Plant response rating, Velvetleaf",[8]; [18],40
same,"Plant response rating, Velvetleaf",[8]; [19],60
same,"Plant response rating, Velvetleaf",[8]; [20],85
same,Velvetleaf plant response rating,[8]; [21],85
same,Velvetleaf plant response rating,[8]; [22],85
same,"Plant response rating, Corn",corn (Zea mays); [15],15
same,Corn plant response rating,corn (Zea mays); [16],5
same,"Plant response rating, Corn",corn (Zea mays); [17],5
same,"Plant response rating, Corn",corn (Zea mays); [18],5
same,"Plant response rating, Corn",corn (Zea mays); [19],5
same,"Plant response rating, Corn",corn (Zea mays); [20],5
same,Corn plant response rating,corn (Zea mays); [21],5
same,Corn plant response rating,corn (Zea mays); [22],5
same,"Plant response rating, Oilseed Rape",[9]; [15],75
same,Oilseed Rape plant response rating,[9]; [16],90
same,"Plant response rating, Oilseed Rape",[9]; [17],95
same,"Plant response rating, Oilseed Rape",[9]; [18],80
same,"Plant response rating, Oilseed Rape",[9]; [19],85
same,"Plant response rating, Oilseed Rape",[9]; [20],98
same,Oilseed Rape plant response rating,[9]; [21],98
same,Oilseed Rape plant response rating,[9]; [22],98
same,"Plant response rating, Galium",[10]; [15],95
same,Galium plant response rating,[10]; [16],95
same,"Plant response rating, Galium",[10]; [17],95
same,"Plant response rating, Galium",[10]; [18],98
same,"Plant response rating, Galium",[10]; [19],95
same,"Plant response rating, Galium",[10]; [20],98
same,Galium plant response rating,[10]; [21],100
same,Galium plant response rating,[10]; [22],95
same,"Plant response rating, Foxtail, Giant",[11]; [15],85
same,"Foxtail, Giant plant response rating",[11]; [16],90
same,"Plant response rating, Foxtail, Giant",[11]; [17],95
same,"Plant response rating, Foxtail, Giant",[11]; [18],85
same,"Plant response rating, Foxtail, Giant",[11]; [19],95
same,"Plant response rating, Foxtail, Giant",[11]; [20],100
same,"Foxtail, Giant plant response rating",[11]; [21],100
same,"Foxtail, Giant plant response rating",[11]; [22],95
same,"Plant response rating, Crabgrass, Large",[12]; [15],65
same,"Crabgrass, Large plant response rating",[12]; [16],70
same,"Plant response rating, Crabgrass, Large",[12]; [17],75
same,"Plant response rating, Crabgrass, Large",[12]; [18],70
same,"Plant response rating, Crabgrass, Large",[12]; [19],85
same,"Plant response rating, Crabgrass, Large",[12]; [20],90
same,"Crabgrass, Large plant response rating",[12]; [21],100
same,"Crabgrass, Large plant response rating",[12]; [22],70
same,"Plant response rating, Soybean",soybean (Glycine max); [15],10
same,Soybean plant response rating,soybean (Glycine max); [16],20
same,"Plant response rating, Soybean",soybean (Glycine max); [17],25
same,"Plant response rating, Soybean",soybean (Glycine max); [18],0
same,"Plant response rating, Soybean",soybean (Glycine max); [19],5
same,"Plant response rating, Soybean",soybean (Glycine max); [20],5
same,Soybean plant response rating,soybean (Glycine max); [21],20
same,Soybean plant response rating,soybean (Glycine max); [22],20
same,"Plant response rating, Morningglory",[13]; [15],95
same,Morningglory plant response rating,[13]; [16],98
same,"Plant response rating, Morningglory",[13]; [17],100
same,"Plant response rating, Morningglory",[13]; [18],45
same,"Plant response rating, Morningglory",[13]; [19],85
same,"Plant response rating, Morningglory",[13]; [20],85
same,Morningglory plant response rating,[13]; [21],90
same,Morningglory plant response rating,[13]; [22],98
same,"Plant response rating, Oat, Wild",[14]; [15],55
same,"Oat, Wild plant response rating",[14]; [16],80
same,"Plant response rating, Oat, Wild",[14]; [17],90
same,"Oat, Wild plant response rating",[14]; [22],90
same,"Plant response rating, Kochia",kochia (Kochia scoparia); [15],50
same,Kochia plant response rating,kochia (Kochia scoparia); [16],50
same,"Plant response rating, Kochia",kochia (Kochia scoparia); [17],80
same,Kochia plant response rating,kochia (Kochia scoparia); [22],60
